14 compounds from PMC10149936, “Cofilin activation in pancreatic acinar cells plays a pivotal convergent role for mediating CCK-stimulated enzyme secretion and growth” (Frontiers in Physiology, 2023) can be followed below.

In general, inhibition refers to the percentage by which the read-out fell short of the control.

No end group written: not given here.

The subject of experiment [1] is cofilin (pS3) in rat pancreatic acini. Briefly: cofilin activation (phospho-pS3 cofilin Western blot) in isolated rat pancreatic acini. It counts as cell-based. The note with it: for effect on cofilin phosphorylation (pS3): 1 min, CCK-8 100 nM, carbachol 1 μM, bombesin 1 nM, secretin 1 nM or VIP 1 nM, n at least 3; for reversal of cofilin dephosphorylation by CCK-8: Wortmannin 1 µM, LY294002 100 µM, SB202190 10 µM, U0126 10 µM, Y-27632 10 µM 1 h, SP600125 20 µM 3 h; for reversal of cofilin dephosphorylation by CCK-8 / inhibition of dephosphorylation of cofilin stimulated by CCK-8 or TPA: CCK-8 0.3 and 100 nM 3 min; for effect on basal phosphorylation level of cofilin / reversal of cofilin dephosphorylation stimulated by CCK-8 and TPA: GFX 5 µM, kbNB 0.1 µM or PP2 10 µM; for effect on basal phosphorylation level of cofilin / reversal of cofilin dephosphorylation stimulated by CCK-8 and TPA / inhibition of dephosphorylation of cofilin stimulated by CCK-8 or TPA: 3 h; for reversal of cofilin dephosphorylation stimulated by CCK-8 and TPA: CCK-8 100 nM 3 min; for reversal of cofilin dephosphorylation stimulated by CCK-8 and TPA / inhibition of dephosphorylation of cofilin stimulated by CCK-8 or TPA: TPA 1 µM 5 min; for decrease of basal phosphorylation levels of cofilin / inhibition of CCK-8-stimulated dephosphorylation of cofilin: LIMK inhibitor 10 µM 3 h; for inhibition of CCK-8-stimulated dephosphorylation of cofilin: CCK-8 0.3 or 100 nM 3 min; for inhibition of dephosphorylation of cofilin stimulated by CCK-8 or TPA: PF-3758309 0.1 nM or LCH-7749944 30 µM. As to the method:
(§1) Pancreatic acini preparations were obtained by collagenase digestion as previously described ([Bissonnette et al., 1984]; [Sato et al., 1989]; [Ramos-Alvarez and Jensen, 2018]). After collagenase digestion, dispersed acini were preincubated with different inhibitors in standard incubation solution ([Ramos-Alvarez and Jensen, 2018]; [Ramos-Ãlvarez et al., 2020]) for 3 h at 37°C under conditions specific for PKD/PKC, Src, PI3K, MAPKs, SSH1, LIMK, cofilin, other phosphatases and PAK4 inhibitors, as described previously ([Ramos-Alvarez and Jensen, 2018]; [Ramos-Ãlvarez et al., 2020]). Isolated acini and CCK1-R/Panc-1 cells (M&M 2.2.1) were also preincubated with two SSH1 inhibitors, D3 (25 μM, 1 h) ([Li et al., 2015]) or SE (50 μM, 3 h for acini; 24 h for CCK1-R/Panc-1 cells) ([Lee et al., 2017]). After preincubation, 1 mL aliquots of dispersed acini were incubated at 37°C for 3–15 min with CCK-8 (0.3 nM or 100 nM), for 5–15 min with TPA (1 µM) or without stimulants, used as control. Cells were lysed in lysis buffer (50 mM Tris/HCl pH 7.5, 150 mM NaCl, 1% Triton X-100, 1% deoxycholate, 0.1% sodium azide, 1 mM EGTA, 0.4 mM EDTA, 0.2 mM sodium orthovanadate, 1 mM PMSF, and one protease inhibitor tablet per 10 mL). After sonication, lysates were centrifuged at 10,000×g for 15 min at 4°C and protein concentration was measured using the Bio-Rad protein assay reagent. Finally, cells were processed as below for Western blotting.
(§2) Both concentrations of CCK-8 were used because CCK-8 is reported to have different responses with physiological and supraphysiological concentrations contributing to physiological and pathophysiological processes such as pancreatitis ([Dufresne et al., 2006]).
(§3) Western blotting and immunoprecipitation were performed as described previously ([Ramos-Alvarez and Jensen, 2018]). Whole cell lysates were subjected to SDS-PAGE using 4%–20% Tris–Glycine gels. […] Finally, membranes were then washed again twice in blocking buffer for 4 min, twice in washing buffer for 4 min, incubated for 4 min with chemiluminescence detection reagents. The intensity of the protein bands was measured using GeneTools software from Syngene, which were assessed in the linear detection range.
All experiments were performed at least 3 times. Data are presented as mean ± SEM and were analyzed with the non-parametric Kruskal–Wallis analysis (data was not normally distributed) and the Dunn’s multiple comparison test using the GraphPad Prism 8.0 software. P values < 0.05 were considered significant.
(A) Isolated pancreatic acini were incubated in the absence or presence of CCK-8 (100 nM), carbachol (1 μM), bombesin (1 nM), secretin (1 nM) or VIP (1 nM) for 1 min and then lysed. (B) Isolated pancreatic acini were incubated in the absence or presence of CCK-8 and CCK-JMV (at the indicate concentrations) for 3 min and then lysed. Western blots were analyzed using anti-pS3 cofilin, which mediates the activation state of cofilin. Bands were visualized using chemiluminescence and quantified by densitometry.

For experiment [2], the system named is LIMK (pT508) in pancreatic acini. Briefly: LIMK phosphorylation (pT508 LIMK Western blot) in isolated rat pancreatic acini. To be noted: for decrease of basal levels of LIMK phosphorylation: 10 µM, 3 h preincubation, n at least 4. In kind it is cell-based. As to the method:
as §1, §2, §3
Isolated pancreatic acini were incubated with either no addition (control), CCK-8 (0.3 and 100 nM) or TPA (1 µM) for the indicated periods of time and then lysed. Western blots were analyzed using anti-pT508 LIMK, anti-pS3 cofilin and anti-pS978 SSH1, which […] the activation states of LIMK, cofilin and SSH1. Bands were visualized using chemiluminescence and quantified by densitometry.
(A western blot detects proteins with antibodies after separation by electrophoresis.)

For experiment [3], the system named is cofilin (pS3) in CCK1-R/Panc-1 cells. Briefly: cofilin activation (pS3 cofilin Western blot) in CCK1-R/Panc-1 cells. In kind it is cell-based, human. To be noted: CCK-8 0.3 or 100 nM; D3 25 µM 1 h or SE 50 µM 24 h. The method, then:
CCK1 receptor transfected Panc-1 (CCK1-R/Panc-1) cells ([Berna et al., 2009]) and AR42J cells, were cultured in DMEM supplemented with 10% FBS and 1% penicillin/streptomycin and in RPMI supplemented with 10% FBS and 1% penicillin/streptomycin, respectively; and split 1:10 weekly with trypsin/EDTA, after washing in PBS. Finally, cells were seeded in 6-well plate and serum starved overnight, until they were 80% confluent. Cells were incubated at 37°C in 5% CO2/95% air. AR42J cells were treated with 100 nM dexamethasone for 72°h, which stimulates their differentiation into exocrine cells ([Logsdon, 1986]).
Pancreatic acini preparations were obtained by collagenase digestion as previously described ([Bissonnette et al., 1984]; [Sato et al., 1989]; [Ramos-Alvarez and Jensen, 2018]). […] Isolated acini and CCK1-R/Panc-1 cells (M&M 2.2.1) were also preincubated with two SSH1 inhibitors, D3 (25 μM, 1 h) ([Li et al., 2015]) or SE (50 μM, 3 h for acini; 24 h for CCK1-R/Panc-1 cells) ([Lee et al., 2017]). […] After sonication, lysates were centrifuged at 10,000×g for 15 min at 4°C and protein concentration was measured using the Bio-Rad protein assay reagent. […]
Western blotting and immunoprecipitation were performed as described previously ([Ramos-Alvarez and Jensen, 2018]). […] The intensity of the protein bands was measured using GeneTools software from Syngene, which were assessed in the linear detection range. […]
FIGURE 3 Effect of two SSH1 inhibitors, D3 and SE (A–C), or SSH1 siRNA (D), on the ability of CCK-8 (0.3 and 100 nM) to activate LIMK and cofilin in pancreatic acini (A/B) and activate cofilin in CCK1-R/Panc-1 cells (C/D). […] Western blots were analyzed using anti-pS3 cofilin and anti-pT508 […], and the knockdown effect of SSH1 was confirmed by Western blots using SSH1 (C-term) antibody. Bands were visualized using chemiluminescence and quantified by densitometry. […] Results are expressed as % of basal stimulation of the control group. *, p < 0.05 compared to the control group; ∞, p < 0.05 compared to stimulants without inhibitors. […]

The mark [4] stands for this setting: SE 50 µM 3 h or D3 25 µM 1 h, no stimulant.
Setting [5] is: inhibitor 10 µM 3 h, CCK-8 0.3 or 100 nM 3 min.

Turning to secretin, in experiment [1], the “effect on cofilin phosphorylation (pS3)” value is reported as “rapidly decreased cofilin phosphorylation”.

On to `COC[C@H]1OC(=O)c2coc3c2[C@@]1(C)C1=C(C3=O)[C@@H]2CCC(=O)[C@@]2(C)C[C@H]1OC(C)=O` [Wortmannin], for which the “reversal of cofilin dephosphorylation by CCK-8” value in experiment [1] is given as “not PI3K or p38”. The same measure, in the same setting: to `O=c1cc(N2CCOCC2)oc2c(-c3ccccc3)cccc12` [LY294002] belongs “not PI3K or p38”. Take KbNB142-70: the “effect on basal phosphorylation level of cofilin” value in experiment [1] (no stimulant) is given as “None of these inhibitors altered the basal phosphorylation level of cofilin”. Further, the “reversal of cofilin dephosphorylation stimulated by CCK-8 and TPA” value in experiment [1] is “completely reversed”. In the case of `O=C(O)c1cc(O)c2c(c1)[C@H]([C@H]1c3cc(C(=O)O)cc(O)c3C(=O)c3c(O[C@@H]4O[C@H](CO)[C@@H](O)[C@H](O)[C@H]4O)cccc31)c1cccc(O[C@@H]3O[C@H](CO)[C@@H](O)[C@H](O)[C@H]3O)c1C2=O` [SE, Sennoside A], the inhibition at 50 µM in experiment [2] (Rattus norvegicus, CCK-8 0.3 or 100 nM, 5 min, SE 50 µM 3 h or D3 25 µM 1 h preincubation, read-out: inhibition of CCK-8's dephosphorylation of LIMK) was 20%; in experiment [1] (Rattus norvegicus, CCK-8 0.3 or 100 nM, 5 min, SE 50 µM 3 h or D3 25 µM 1 h preincubation, n at least 4, read-out: inhibition of CCK-8-caused cofilin dephosphorylation) it was 30 to 33%. For the same compound, the “effect on basal phosphorylation of LIMK” value in experiment [2] (setting [4]) was “Neither D3 nor SE affected the basal phosphorylation of LIMK or cofilin”. The “inhibition of CCK-8-induced dephosphorylation of cofilin” value in experiment [3] is “completely inhibited”. Moreover, the “effect on basal phosphorylation of cofilin” value in experiment [1] (setting [4]) is listed as “Neither D3 nor SE affected the basal phosphorylation of LIMK or cofilin”.

Regarding `CC(C)C(=O)Nc1ncc(-c2cc(C(F)F)nn2-c2c(Cl)cccc2Cl)s1` [LIMKi3], the “decrease of basal levels of LIMK phosphorylation” value in experiment [2] (no stimulant) was found to be 33%. In addition, the “inhibition of LIMK dephosphorylation caused by CCK-8” value in experiment [2] (setting [5]) was “completely inhibited”. Also, the “decrease of basal phosphorylation levels of cofilin” value in experiment [1] (no stimulant) is 39%. The “inhibition of CCK-8-stimulated dephosphorylation of cofilin” value in experiment [1] was “did not inhibit”. As to `Cc1nc(Nc2[nH]nc3c2CN(C(=O)N[C@H](CN(C)C)c2ccccc2)C3(C)C)c2sccc2n1` [PF-3758309], the “inhibition of dephosphorylation of cofilin stimulated by CCK-8 or TPA” value in experiment [1] is reported as “completely inhibited”. Turning to `CC(C)(C)n1nc(-c2ccc(Cl)cc2)c2c(N)ncnc21` [PP2], the “effect on basal phosphorylation level of cofilin” value in experiment [1] (no stimulant) is listed as “None of these inhibitors altered the basal phosphorylation level of cofilin”. The “reversal of cofilin dephosphorylation stimulated by CCK-8 and TPA” value in experiment [1] is “completely reversed”. Regarding “VIP: pancreatic acinar secretagogue (HSDAVFTDNYTRLRKQMAVKKYLNSILN; ends and bridges not checked; UniProt P01282 125-152, looked up)”, the “effect on cofilin phosphorylation (pS3)” value in experiment [1] is given as “rapidly decreased cofilin phosphorylation”. In the case of `Cc1c[nH]c2ncnc(-c3ccc(NC(=O)N(CCO)c4ccccc4)cc3)c12` [SR7826], the “decrease of basal levels of LIMK phosphorylation” value in experiment [2] (no stimulant) was 33%. Also, in experiment [2] (setting [5]), the “increase in LIMK phosphorylation with CCK-8 stimulation” value was determined as 80% and the “inhibition of LIMK dephosphorylation caused by CCK-8” value is “completely inhibited”. Moreover, the “decrease of basal phosphorylation levels of cofilin” value in experiment [1] (no stimulant) is on record as 67%. In experiment [1], the “inhibition of CCK-8-stimulated dephosphorylation of cofilin” value is “did not inhibit”. Regarding bombesin, in experiment [1], the “effect on cofilin phosphorylation (pS3)” value is “rapidly decreased cofilin phosphorylation”. Still for that read-out and setting: with `C[N+](C)(C)CCOC(N)=O` [carbachol] the entry was “rapidly decreased cofilin phosphorylation”. As for `COc1cccc(Nc2nc(NCC3CCCO3)c3ccccc3n2)c1` (stereo not drawn) [LCH-7749944, N2-(3-methoxyphenyl)-N4-[(oxolan-2-yl)methyl]quinazoline-2,4-diamine], the “inhibition of dephosphorylation of cofilin stimulated by CCK-8 or TPA” value in experiment [1] is listed as “completely inhibited”. In the case of `C[C@@H](N)[C@H]1CC[C@H](C(=O)Nc2ccncc2)CC1` [Y-27632], in experiment [1], the “reversal of cofilin dephosphorylation by CCK-8” value was “completely reversed”.
